# Results from patent publication US12357657B2, “Silver-/gold-compounds and methods thereof” (priority 2019, dated 2025).
# What was measured:
# apo-MCR-1-S = apo-MCR-1-S (Escherichia coli, UniProt A0A0R6L508); assay: biochemical
# Experimental: The apo-MCR-1-S without any tag was diluted into proper concentration for ITC assay. […] The stoichiometry of metal binding and binding affinities were obtained by fitting the data with proper equations and these assays were performed in triplicate.
# MCR-1-S = MCR-1-S (Escherichia coli, UniProt A0A0R6L508); conditions: ICP-MS
# Experimental: The equilibrium dialysis was used to monitor the exact binding process. Apo-MCR-1-S was put in the inner side of dialysis membrane and outer side was supplemented with Au^+, Ag^+ or Zn^2+ at different molar ratios. Zn^2+ displacement analysis was performed by adding equivalents of Au^+ and Ag^+ into outer side of the membrane.
# full length MCR-1 = target: T1, full length MCR-1 (Escherichia coli, UniProt A0A0R6L508); assay type: biochemical; conditions: MCR-1 pre-treated with 10 molar equivalents, 25° C. overnight
# T1 construct: The full length MCR-1 was pre-treated with or without 10 molar equivalents
# Experimental: TLC plate was used to separate NBD-glycerol from the MCR-1 reaction mixture in a mobile phase [ethyl acetate:methanol:water, 7:2:1 (vol/vol)]. The reaction product was analyzed by exposing the TLC plate to UV light (455-485 nm) and visualizing the fluorescent signals with a gel imaging system. […] Cellular Thermal Shift Assay
# MCR-1-negative E. coli = assay type: cell-based; conditions: MCR-1-negative E. coli strain
# Experimental: (§1) MIC values of either antibiotics or Bi(III) compounds were determined firstly by standard broth micro-dilution method (Clinical and Laboratory Standards Institute (CLSI) M100-S20, 2010). Briefly, bacteria cells were cultured in LB broth overnight at 37° C. at 250 rpm and the optical density was measured at 600 nm (OD600) using a microtiter plate reader. The bacterial density was adjusted to about 1×10^6 CFU mL^−1 and checked by CFU counting on agar plates afterwards. Tested compounds were added triplicately into individual wells of flat-bottomed 96-well plates and performed two-fold serial dilution, followed by addition of prepared bacterial inoculum. The plate was then incubated at 37° C. overnight. Lanes with no antibiotics or bismuth compounds served as positive controls and lanes with no bacteria added served as negative controls. The MIC was determined as the lowest concentration of compounds that could inhibit the growth of microorganism by both visual reading and OD600 measurement.
# (§2) Other procedures and the check of MIC were kept strictly the same. […] Synergism was defined as FICI≤0.5, indifference was defined as FICI>0.5 and <4, and antagonism was defined as FICI≥4. All of the determinations were performed at least in triplicate on different days.
# MCR-1-producing E. coli = assay: Mutant prevention concentration (MPC) test; assay type: cell-based; conditions: for mutant colonies: colistin alone at 16×MIC, or colistin with 30 μg mL^−1 of the compound; for MPI of colistin (MPC/MIC): in presence of 30 μg mL^−1 of the compound
# Source text: Given the very notion of MIC, all susceptible bacterial cells are suppressed or killed by a dose above it. […] The dose of compounds at MIC adversely amplifies the population of those less-susceptible mutants. Thus, mutant prevention concentration (MPC), defined as a compound concentration that suppresses the growth of first-step resistant mutant in large quantity of susceptible bacterial population, together with mutant prevention index (MPI=MPC/MIC), is introduced to estimate the mutant prevention ability of exemplary compound combination. […] All the plates were incubated at 37° C. Upon incubation for 48 hours, up to 4 colonies were picked and re-cultured from any plates with observable colonies, followed by the measurement of their MIC values. […] The concentration that restricted the growth of mutant colonies was determined as MPC.
# [1] = system: K. pneumoniae 9607 (MCR-1+); assay: Murine infection model, bacterial loads in liver and spleen; assay type: in vivo, mice; conditions: monotherapy, single i.p. dose 1 hr post-infection, 48 hrs; colistin 2 mg kg^−1, auranofin 0.5 mg kg^−1, AgNO3 1.5 mg kg^−1
# Experimental: For local infection experiment, an overnight culture of K. pneumoniae 9607 (MCR-1^+) was performed 1:250 dilution in LB broth and re-grew to about OD600 0.5 at 37° C., 250 rpm. Bacterial pellets were collected and washed by PBS buffer three times for further use. Mice were infected intraperitoneally (i.p.) with a dose of 2×10^6 CFU of bacteria in PBS. […] All the mice were scarified at 48 hrs following systemic infection, and bacterial loads in livers and spleens were examined by agar plating. […] Body weights and mice survival were monitored till endpoint of the experiment.
# E. coli CKE = assay: Murine systemic infection model, survival assay; assay type: in vivo, mice; conditions: for mice rescued from death: combination with colistin 1 mg kg^−1, single i.p. dose 0.5 hr post infection; for protection of mice from death: mono-therapy, AgNO3 0.75 mg kg^−1 or auranofin 0.25 mg kg^−1 i.p., within 72 hours
# Zn(II)-MCR-1-S = Zn(II)-MCR-1-S (Escherichia coli, UniProt A0A0R6L508); conditions: PAR assay
# Experimental: UV-visible spectra were collected by Varian Cary 50 spectrophotometer at a rate of 360 nm/min by using the 1 cm^−1 quartz cuvette. 4-(2-pyridylazo) resorcinol (PAR), a Zn(II) chelator, can strongly chelate free Zn^2+ to form Zn(PAR)2 complex, leading to an obvious migration of maximum absorbance peak from ca. 420 nm to ca. 500 nm. Herein, we incubated apo-MCR-1-S with 10 folds Zn^2+ in dialysis buffer (20 mM HEPES, pH=7.4, 50 mM NH4NO3). After 12 hour incubation, Zn(II)-MCR-1-S was separated into aliquots and then mixed with Ag(I), Au(I) or even their compounds at different molecular ratios. Dialysis buffer instead of these metal compounds was added into Zn(II)-MCR-1-S solution as negative controls. For positive control, 10-folds of Zn(II) were mixed with apo-MCR-1-S. By comparing the peak intensities among different groups, the amounts of released Zn(II) could be calculated. UV-visible spectra were recorded in a range of 220-600 nm at least 30 min later after incubation.
# MCR-1 = target: T2, MCR-1 (Escherichia coli, UniProt A0A0R6L508); assay type: cell-based, E. coli BL21(DE3); conditions: overnight exposure, in cellulo
# T2 construct: solvable truncated MCR-1 fragment (200-541 aa) but without any tag; expressed in transfected cells; host or cells: E. coli BL21(DE3)
# Experimental: Considering that MCR-1 is a transmembrane protein, we constructed a plasmid with solvable truncated MCR-1 fragment (200-541 aa) but without any tag and then transferred it into E. coli BL21(DE3). The cellular thermal shift assay was performed according to a general standard method. […] The bacterial pellets were harvested and washed with PBS for 3 times. The cell suspensions were aliquoted into PCR tubes and heat treatment was performed at the designated temperature for 3 mins in a 96-well thermal cycler. The tubes were cooled immediately at 25° C., and the heat treatments were repeated for three cycles. For the cell lysis, the samples were frozen-thawed in liquid nitrogen and thermal cycler was set at 25° C. The samples were vortexed gently after each cycle and centrifuged at 20,000×g to obtain the supernatant. All the samples were subjected to SDS-PAGE gel and electrotransferred to a PVDF membrane (Hybond-P, GE Healthcare). A PageRuler Prestained Protein Ladder #26616 (Thermo) was used as a standard marker.
# S. flexneri (MCR-1+) = assay type: cell-based; conditions: MCR-1 positive S. flexneri; AgNO3 10 μM, auranofin 3 μM, Au(PEt3)Cl 3 μM; untreated 4.1, MCR-1 negative 6.1
# Experimental: Membrane potential assay was carried out based on a modified method according to manufacturer's instructions. […] The bacterial pellets were then resuspended in PBS supplemented with DiOC2 (30 μM) and stained at 37° C. for 30 mins. Stained bacteria were then assayed in a flow cytometer and the signals from FITC-A (488 nm, green gate) and PI-A (633 nm, red gate) were collected and then analyzed. S. flexneri without treatment served as the control.
# MCR-producing E. coli [2] = assay type: cell-based
# Experimental: as §1, §2
# MCR-producing E. coli [3] = assay: In vitro serial passage resistance assay; assay type: cell-based; conditions: colistin combined with the compound
# Experimental: The in vitro passage assay was also conducted to evaluate the antimicrobial durability of the combination. In a typical experiment, an overnight culture of MCR-producing E. coli was diluted to 10^7 CFU mL^−1 in LB broth. […] All the plates were incubated at 37° C. and the growth of cultures was checked at 24 h intervals. Cultures from the second highest concentrations that allowed growth were performed 1:1000 dilution into fresh medium supplemented with the same concentrations of drugs. For colistin, 1-fold of MIC was set as 4 μg mL^−1. This in vitro passage was repeated for 20 days. MIC of MER was determined every four passages.
# apo-MCR-1-S, sequence (A0A0R6L508 200-541): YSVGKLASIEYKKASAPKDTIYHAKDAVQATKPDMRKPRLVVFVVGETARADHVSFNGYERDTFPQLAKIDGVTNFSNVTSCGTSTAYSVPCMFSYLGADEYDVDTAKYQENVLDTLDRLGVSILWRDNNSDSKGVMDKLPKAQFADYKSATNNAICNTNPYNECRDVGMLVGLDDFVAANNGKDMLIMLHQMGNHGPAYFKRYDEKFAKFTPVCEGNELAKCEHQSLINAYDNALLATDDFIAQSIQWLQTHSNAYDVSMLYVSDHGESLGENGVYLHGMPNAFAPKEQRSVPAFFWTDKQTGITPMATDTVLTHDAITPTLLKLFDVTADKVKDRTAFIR
# MCR-1-S, sequence (A0A0R6L508 200-541): as above
# T2 sequence (A0A0R6L508 200-541): as above
# Zn(II)-MCR-1-S, sequence (A0A0R6L508 200-541): as above
# T1 sequence (A0A0R6L508 whole entry): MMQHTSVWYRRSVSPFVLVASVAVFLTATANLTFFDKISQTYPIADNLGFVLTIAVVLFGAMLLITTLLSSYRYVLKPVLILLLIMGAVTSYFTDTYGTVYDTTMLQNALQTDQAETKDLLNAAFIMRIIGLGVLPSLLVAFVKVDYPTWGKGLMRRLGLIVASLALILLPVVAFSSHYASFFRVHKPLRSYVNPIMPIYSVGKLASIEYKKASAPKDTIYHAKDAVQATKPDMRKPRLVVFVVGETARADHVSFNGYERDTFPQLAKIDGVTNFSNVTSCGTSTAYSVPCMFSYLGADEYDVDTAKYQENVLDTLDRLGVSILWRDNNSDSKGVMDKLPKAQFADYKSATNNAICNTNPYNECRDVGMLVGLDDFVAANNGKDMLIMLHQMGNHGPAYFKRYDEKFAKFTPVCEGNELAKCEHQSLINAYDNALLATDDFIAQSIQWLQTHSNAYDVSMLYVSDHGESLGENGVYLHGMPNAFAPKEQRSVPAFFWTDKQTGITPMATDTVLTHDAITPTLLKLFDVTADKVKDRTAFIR
smiles,measurement,setting,value
"[Zn+2] [Zn(Ac)2, zinc(II) acetate]",Kd,apo-MCR-1-S,~2450 nM
"[Ag+] [AgNO3, silver nitrate]",Kd,apo-MCR-1-S,~200 nM
same,replacement of protein bound metal by extraneous Zn(II),MCR-1-S,could not be replaced
same,equivalents of metal that replaced about 3 molar equivalents of Zn(II),MCR-1-S; equilibrium dialysis,16 equivalent
same,migration of NBD-glycerol (cleavage activity of MCR-1),full length MCR-1,"none of AgNO3, AuCl or Au(PEt3)Cl treatment group exhibited observable migration"
same,inhibition in combination with colistin,MCR-1-negative E. coli,no inhibition was observed
same,mutant colonies,MCR-1-producing E. coli,no mutant colony was observable
same,MPI of colistin (MPC/MIC),MCR-1-producing E. coli,0.5
same,CFUs in liver and spleen,[1],~10^5 cfu mL^−1 g^−1
same,mice rescued from death,E. coli CKE,3 out of 6
same,protection of mice from death,E. coli CKE,failed to protect any of the mice from death
same,release of Zn(II) from MCR-1-S upon titration,Zn(II)-MCR-1-S,completely released
CC(=O)OC[C@H]1O[C@@H]([S-])[C@H](OC(C)=O)[C@@H](OC(C)=O)[C@@H]1OC(C)=O.CCP(CC)CC.[Au+] [auranofin],"decrease of cellular thermal stability of MCR-1, ΔTm",MCR-1,5.2 °C
same,green/red fluorescent ratio after treatment,S. flexneri (MCR-1+),6.1
same,inhibition in combination with colistin,MCR-1-negative E. coli,no inhibition was observed
same,MIC of colistin in combination with the compound,"MCR-producing E. coli [2]; checkerboard, lowest colistin MIC reached with increasing compound",0.25 µg/mL
same,FIC index (FICI) with colistin,MCR-producing E. coli [2]; synergism FICI≤0.5,0.375
same,mutant colonies,MCR-1-producing E. coli,no mutant colony was observable
same,MPI of colistin (MPC/MIC),MCR-1-producing E. coli,0.5
same,fold rise of colistin MIC after 16 serial passages,MCR-producing E. coli [3],4 folds
same,CFUs in liver and spleen,[1],~10^5 cfu mL^−1 g^−1
same,mice rescued from death,E. coli CKE,protect all the infected mice from death
same,protection of mice from death,E. coli CKE,failed to protect any of the mice from death
